# Marks after values point to notes of the source that are not given here.
# Legend:
# liver CYP27A1 mRNA = test: Example 1: liver CYP27A1 mRNA expression, real-time PCR; assay type: in vivo, Male Golden Syrian hamsters; conditions: relative expression in reference to a housekeeping gene, Example 1, 4 weeks
# Protocol: Experiments were also conducted to determine the effect on the expression of genes associated with cholesterol in the liver and intestine. Total RNA was extracted and mRNA was converted to cDNA. The mRNA expression was measured by real-time PCR with four repeats and calculated as relative expression in reference to internal control of a housekeeping gene for each sample. Table 5, FIG. 8b and FIG. 8c summarize the effect of BBRCI and PS on the mRNA expression of CYP7A1 and CYP27A1 in the liver. BBRCI and PS alone tended to increase mRNA expression of both genes. CYP7A1 and CYP27A1 are two rate-limiting enzymes controlling bile acid synthesis, which is one mechanism through which the body removes cholesterol by converting it into bile acids. When BBRCI and PS were combined, a synergistic action appeared to happen.
# [1] = test system: hamsters fed an atherogenic control diet; test: Example 1: tissue weight relative to body weight and histopathological examination of organs; assay type: in vivo, Male Golden Syrian hamsters
# Protocol: Histopathological testing and examination of gross and microscopic examination of thin sections of the various organs were conducted by a certified pathologist. There were no significant changes in the appearance or weight of brain, lung, heart, spleen and kidney. However, the livers of control animals were observably yellowish and heavier than those of animals treated with BBRCI or plant stanols, or the combination of either. Table 3 summarizes the effect of BBRCI and plant stanols on the percent tissue weight relative to body weight.
# [2] = test system: rats fed a diet containing 2% cholesterol and 28% fat; test: Example 4: six week rat study, blood total cholesterol levels; assay type: in vivo, male Sprague-Dawley rats; conditions: 6 weeks; for T-C: 2% cholesterol 28% fat diet, means±SD, n=10
# Protocol: In this example, a controlled, six week animal study was performed in a different animal model. Six randomized groups of 10 male Sprague-Dawley rats were fed isocaloric diets as follows. […] One objective of this example was to determine the effects of each intervention on plasma cholesterol levels in a different animal model. Table 9 summarizes the effect on blood total cholesterol levels (values are means±SD, n=10).
# intestinal ABCG5 mRNA = test: Example 1: intestinal ABCG5 mRNA expression, real-time PCR; assay type: in vivo, Male Golden Syrian hamsters; conditions: intestine; relative expression in reference to a housekeeping gene; Example 1, 4 weeks
# Protocol: (§1) Experiments were also conducted to determine the effect on the expression of genes associated with cholesterol in the liver and intestine. Total RNA was extracted and mRNA was converted to cDNA. The mRNA expression was measured by real-time PCR with four repeats and calculated as relative expression in reference to internal control of a housekeeping gene for each sample. […] The function of ABCG5 and ABCG8 in the intestine is to transport cholesterol out of enterocytes and back to the intestine for elimination via the feces. […] The observation of our study (Example 1) has provided a strong support to the synergistic action of BBRCI and PS on cholesterol reduction.
# intestinal ABCG8 mRNA = test: Example 1: intestinal ABCG8 mRNA expression, real-time PCR; assay type: in vivo, Male Golden Syrian hamsters; conditions: intestine; relative expression in reference to a housekeeping gene; Example 1, 4 weeks
# Protocol: as §1
# [3] = test system: hamsters fed an atherogenic control diet; test: Example 1: liver cholesterol concentration (FIG. 4); assay type: in vivo, Male Golden Syrian hamsters; conditions: Example 1, 4 weeks, BBRCI 100 mg/kg·d and/or PS 1% (w/w)
# From the text: This observation, together with lower liver weight, implies that either BBRCI or PS or combination of either can be used to treat fatty liver.
# [4] = test system: hamsters fed an atherogenic control diet; test: Example 1: four week hamster study, plasma cholesterol and triglyceride levels; assay type: in vivo, Male Golden Syrian hamsters
# Protocol: A controlled, four week animal study was performed to compare and contrast the effects of three interventional strategies on blood cholesterol and triglyceride levels. Four randomized groups of 15 male Golden Syrian hamsters were fed isocaloric diets as follows: • Control a semi-synthetic casein-corn starch-sucrose diet that contained 0.15% (w/w) cholesterol and 5% (w/w) fat • BBRCI control diet containing 100 mg/kg·d of BBRCI • PS control diet containing 1% (w/w) PS • BBRCI+PS control diet containing 100 mg/kg·d BBRCI and 1% (w/w) PS BBRCI and PS were introduced into the diet by blending. The primary endpoint at the end of the study was to determine the effects of each intervention on circulating blood lipids including total cholesterol (T-C), high-density-lipoprotein cholesterol (HDL-C), nonHDL-C (which is indicative of LDL-C levels) and triglyceride (TG) profiles. All lipids were measured by the standard enzymatic method. Male Golden Syrian Hamsters were purchased from Charles River Co. housed individually in cages for two weeks prior to the commencement of the study. During this adjustment period, animals were fed with regular rodent chow diet with free access to both food and water. A total of 60 hamsters were weighed and randomly assigned to one of four groups of 15 animals each. Animals are subjected to a temperature-controlled environment with a 12:12 h light/dark cycle. Each group was fed with one of the four isocaloric experimental diets for a 4 week period. […] During the course of the experiment, animals were weighed weekly and food consumption was determined on a daily basis over the course of the experiment. At the conclusion of the study all animals were anaesthetized with isoflurane and killed by decapitation. Blood samples were collected into tubes containing ethylenediaminetetraacetic acid (EDTA). Red blood cells and plasma were separated and stored at −80° C. until further analysis. Plasma was analyzed for total cholesterol, HDL-C and TG concentrations, for which results are reported below. NonHDL-C was calculated by subtracting HDL-C from total cholesterol. FIGS. 1-3 and Table 2 represent the effects of BBRCI and PS alone or in combination on blood cholesterol and triglyceride levels. Values are means±SD, n=15. Data were analyzed by one-way ANOVA followed by Tukey test if significance was detected. A significant difference was indicated by a p<0.05.
# [5] = Example 1, 4 weeks, BBRCI 100 mg/kg·d and/or PS 1% (w/w)
# [6] = Example 1, BBRCI 100 mg/kg·d, PS 1% (w/w)
# [7] = plasma, 0.15% cholesterol diet, 4 weeks, BBRCI 100 mg/kg·d and/or PS 1% (w/w), means±SD, n=15
smiles,measurement,setting,value
"COc1ccc2cc3[n+](cc2c1OC)CCc1cc2c(cc1-3)OCO2 [BBRCI, Berberine chloride]",CYP27A1 mRNA expression,liver CYP27A1 mRNA,1.27 ± 0.31
same,"Liver, percent tissue weight relative to body weight",[1]; [5],4.4 ± 0.4^b percent
same,appearance of fatty liver,"[1]; Example 1, compared to the livers of the control animals",markedly reduced the appearance of fatty liver
same,T-C,[2]; BBRCI 100 mg/kg·d by gavage (BBRCl-1) and/or PS 1% (w/w) in diet,102.1 ± 30.6 mg/dL
same,T-C,"[2]; BBRCI 200 mg/kg·d by gavage (BBRCl-2), alone or with PS 1% (w/w)",109.1 ± 26.7 mg/dL
same,T-C % difference from Control,[2]; BBRCI 100 mg/kg·d (BBRCl-1) and/or PS 1% (w/w),−6.7%
same,T-C % difference from Control,"[2]; BBRCI 200 mg/kg·d (BBRCl-2), alone or with PS 1% (w/w)",−0.3%
same,ABCG5 mRNA expression,intestinal ABCG5 mRNA,2.37 ± 0.70^a
same,ABCG8 mRNA expression,intestinal ABCG8 mRNA,1.33 ± 0.45^a
same,cholesterol concentration in the liver,[3],dramatically reduced cholesterol concentration in the liver
same,HDL-C % difference from Control,[4]; [5],−16.2%
same,HDL-C/nonHDL-C % difference from Control,[4]; [5],19%
same,T-C % difference from Control,[4]; [5],−21.9%
same,TG % difference from Control,[4]; [5],−3.9%
same,nonHDL-C % difference from Control,[4]; [5],−28.2%
same,reduction of T-C relative to control,[4]; [6],22%
same,reduction of nonHDL-C relative to control,[4]; [6],28%
same,reduction of plasma TG levels,"[4]; Example 1, relative to control, BBRCI 100 mg/kg·d, PS 1% (w/w)",4%
same,T-C Concentration,"[4]; plasma, 0.15% cholesterol diet, 4 weeks, BBRCI 100 mg/kg·d and/or PS 1% (w/w) in diet, means±SD, n=15",169 ± 20^b mg/dl
same,HDL-C Concentration,[4]; [7],100 ± 17^b mg/dl
same,TG Concentration,[4]; [7],326 ± 111^a mg/dl
same,nonHDL-C Concentration,"[4]; plasma, calculated by subtracting HDL-C from total cholesterol, 0.15% cholesterol diet, 4 weeks, BBRCI 100 mg/kg·d and/or PS 1% (w/w), n=15",66 ± 14^b mg/dl
same,HDL-C/nonHDL-C,"[4]; ratio, plasma, 0.15% cholesterol diet, 4 weeks, BBRCI 100 mg/kg·d and/or PS 1% (w/w), n=15",1.60 ± 0.58^b
